Data: patent US9796671B2, “Aurora kinase inhibitors” (REGENTS OF THE UNIVERSITY OF MINNESOTA, priority 2012, dated 2017)

Assays:
Assay in all cases: Kinase profile assay (Millipore)
Assay type in all cases: biochemical
[1] = molecular target: T1, AMPK-alpha1 (Homo sapiens, UniProt Q13131); conditions: read-out: kinase activity compared with the control
T1 construct: purchased Millipore
Description: (§1) A kinase profile assay was performed by Millipore, to examine other potential targets of Compound 1. Only Akt2 activity was suppressed more than 50% after 5 μM compound 1 treatment, compared with the control (Table 2). In addition, the kinase activity of Aurora A was decreased less than 25% at 5 μM Compound 1.

[2] = molecular target: T2, Abl (Homo sapiens, UniProt P00519); conditions: read-out: kinase activity compared with the control
T2 construct: purchased Millipore
Description: as §1

[3] = molecular target: T3, Aurora A (Homo sapiens, UniProt O14965)
T3 construct: purchased Millipore
T3 sequence (O14965 1-403): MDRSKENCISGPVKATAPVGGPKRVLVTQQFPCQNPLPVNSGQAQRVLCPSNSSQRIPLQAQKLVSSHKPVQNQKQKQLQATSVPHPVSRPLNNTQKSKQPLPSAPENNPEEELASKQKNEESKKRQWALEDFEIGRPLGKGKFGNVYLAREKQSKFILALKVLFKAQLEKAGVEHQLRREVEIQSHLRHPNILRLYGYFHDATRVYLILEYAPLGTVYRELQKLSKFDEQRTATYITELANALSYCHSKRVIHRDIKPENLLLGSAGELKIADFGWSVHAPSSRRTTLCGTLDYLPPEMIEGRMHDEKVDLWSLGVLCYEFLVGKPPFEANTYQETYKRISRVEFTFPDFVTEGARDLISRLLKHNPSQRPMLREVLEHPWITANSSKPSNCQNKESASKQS
Description: as §1

[4] = molecular target: T4, CDK1/cyclinB (Homo sapiens, UniProt P06493); conditions: read-out: kinase activity compared with the control
T4 construct: purchased Millipore
Description: as §1

[5] = molecular target: T5, CHK2 (Homo sapiens, UniProt O96017); conditions: read-out: kinase activity compared with the control
T5 construct: purchased Millipore
Description: as §1

[6] = molecular target: T6, CSK (Homo sapiens, UniProt P41240); conditions: 5 μM
T6 construct: purchased Millipore
Description: as §1

[7] = molecular target: T7, EGFR (Homo sapiens, UniProt P00533); conditions: 5 μM
T7 construct: purchased Millipore
T7 sequence (P00533 25-1210, species assumed): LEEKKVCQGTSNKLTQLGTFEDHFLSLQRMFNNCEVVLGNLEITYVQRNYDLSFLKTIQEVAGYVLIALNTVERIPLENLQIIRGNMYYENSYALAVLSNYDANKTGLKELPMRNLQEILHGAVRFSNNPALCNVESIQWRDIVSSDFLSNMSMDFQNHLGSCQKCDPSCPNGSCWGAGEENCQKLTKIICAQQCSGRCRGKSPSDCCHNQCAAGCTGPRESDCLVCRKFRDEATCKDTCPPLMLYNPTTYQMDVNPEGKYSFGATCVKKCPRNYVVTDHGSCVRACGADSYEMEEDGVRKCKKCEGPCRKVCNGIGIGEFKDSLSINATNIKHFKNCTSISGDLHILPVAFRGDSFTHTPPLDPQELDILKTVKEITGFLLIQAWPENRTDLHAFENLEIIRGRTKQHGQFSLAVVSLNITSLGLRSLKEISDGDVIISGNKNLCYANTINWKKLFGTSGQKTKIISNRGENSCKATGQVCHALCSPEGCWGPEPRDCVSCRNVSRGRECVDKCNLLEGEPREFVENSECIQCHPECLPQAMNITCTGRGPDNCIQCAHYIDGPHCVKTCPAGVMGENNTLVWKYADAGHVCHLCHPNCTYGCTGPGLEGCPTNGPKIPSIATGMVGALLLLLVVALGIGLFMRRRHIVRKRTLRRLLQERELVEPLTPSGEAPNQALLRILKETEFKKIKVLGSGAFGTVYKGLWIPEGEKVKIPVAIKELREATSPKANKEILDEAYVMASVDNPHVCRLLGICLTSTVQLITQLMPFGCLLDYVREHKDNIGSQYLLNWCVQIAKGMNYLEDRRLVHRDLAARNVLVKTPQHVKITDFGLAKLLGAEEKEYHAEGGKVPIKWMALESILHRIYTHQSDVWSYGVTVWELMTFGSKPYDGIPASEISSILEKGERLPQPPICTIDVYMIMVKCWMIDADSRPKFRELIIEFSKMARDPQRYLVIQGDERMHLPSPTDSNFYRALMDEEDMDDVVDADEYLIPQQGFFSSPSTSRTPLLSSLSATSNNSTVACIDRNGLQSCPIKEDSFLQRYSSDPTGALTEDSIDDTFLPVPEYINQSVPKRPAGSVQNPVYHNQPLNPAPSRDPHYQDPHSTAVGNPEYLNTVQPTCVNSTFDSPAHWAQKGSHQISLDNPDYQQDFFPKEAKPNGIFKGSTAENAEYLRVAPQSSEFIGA
Description: as §1

[8] = molecular target: T8, EGFR (T790M, L858R) (Homo sapiens, UniProt P00533, L858R/T790M); conditions: 5 μM
T8 construct: purchased Millipore
Description: as §1

[9] = molecular target: T9, FAK (Homo sapiens, UniProt Q05397); conditions: read-out: kinase activity compared with the control
T9 construct: purchased Millipore
T9 sequence (Q05397 whole entry, species assumed): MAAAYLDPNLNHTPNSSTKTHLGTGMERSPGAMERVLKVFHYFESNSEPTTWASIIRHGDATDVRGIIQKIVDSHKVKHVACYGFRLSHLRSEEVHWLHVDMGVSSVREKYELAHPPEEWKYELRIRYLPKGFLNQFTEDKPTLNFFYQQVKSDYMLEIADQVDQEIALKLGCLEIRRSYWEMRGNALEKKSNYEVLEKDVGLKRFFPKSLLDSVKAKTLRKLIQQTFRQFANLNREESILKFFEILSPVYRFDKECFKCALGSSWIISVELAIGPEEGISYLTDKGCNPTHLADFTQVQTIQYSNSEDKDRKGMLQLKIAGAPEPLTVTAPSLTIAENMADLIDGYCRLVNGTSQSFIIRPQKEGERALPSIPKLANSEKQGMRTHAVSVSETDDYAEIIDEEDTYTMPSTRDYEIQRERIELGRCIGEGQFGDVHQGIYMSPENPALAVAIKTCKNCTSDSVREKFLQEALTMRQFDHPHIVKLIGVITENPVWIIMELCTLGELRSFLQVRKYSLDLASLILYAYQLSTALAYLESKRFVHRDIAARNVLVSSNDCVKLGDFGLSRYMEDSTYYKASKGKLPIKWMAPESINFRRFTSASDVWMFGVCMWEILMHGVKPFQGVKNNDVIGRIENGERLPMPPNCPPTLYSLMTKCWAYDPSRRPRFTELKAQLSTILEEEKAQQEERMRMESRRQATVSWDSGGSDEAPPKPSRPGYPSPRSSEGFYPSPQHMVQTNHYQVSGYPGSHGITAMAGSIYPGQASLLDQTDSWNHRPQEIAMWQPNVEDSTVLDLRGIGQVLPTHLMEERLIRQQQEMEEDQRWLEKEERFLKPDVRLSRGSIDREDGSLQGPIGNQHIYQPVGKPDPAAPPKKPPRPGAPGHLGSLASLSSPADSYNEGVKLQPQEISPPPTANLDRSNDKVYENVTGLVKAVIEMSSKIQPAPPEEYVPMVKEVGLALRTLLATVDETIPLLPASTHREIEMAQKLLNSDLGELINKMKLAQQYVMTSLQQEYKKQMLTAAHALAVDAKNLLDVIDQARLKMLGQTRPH
Description: as §1

[10] = molecular target: T10, Flt3 (Homo sapiens, UniProt P36888); conditions: read-out: kinase activity compared with the control
T10 construct: purchased Millipore
Description: as §1

[11] = molecular target: T11, GSK3 alpha (Homo sapiens, UniProt P49840); conditions: read-out: kinase activity compared with the control
T11 construct: purchased Millipore
Description: as §1

[12] = molecular target: T12, GSK3 beta (Homo sapiens, UniProt P49841); conditions: read-out: kinase activity compared with the control
T12 construct: purchased Millipore
Description: as §1

[13] = molecular target: T13, IGF-1R (Homo sapiens, UniProt P08069); conditions: read-out: kinase activity compared with the control
T13 construct: purchased Millipore
Description: as §1

[14] = molecular target: T14, IKK alpha (Homo sapiens, UniProt O15111); conditions: read-out: kinase activity compared with the control
T14 construct: purchased Millipore
Description: as §1

[15] = molecular target: T15, JNK1 alpha1 (Homo sapiens, UniProt P45983); conditions: 5 μM
T15 construct: purchased Millipore
T15 sequence (P45983 1-384 isoform P45983-2, species assumed): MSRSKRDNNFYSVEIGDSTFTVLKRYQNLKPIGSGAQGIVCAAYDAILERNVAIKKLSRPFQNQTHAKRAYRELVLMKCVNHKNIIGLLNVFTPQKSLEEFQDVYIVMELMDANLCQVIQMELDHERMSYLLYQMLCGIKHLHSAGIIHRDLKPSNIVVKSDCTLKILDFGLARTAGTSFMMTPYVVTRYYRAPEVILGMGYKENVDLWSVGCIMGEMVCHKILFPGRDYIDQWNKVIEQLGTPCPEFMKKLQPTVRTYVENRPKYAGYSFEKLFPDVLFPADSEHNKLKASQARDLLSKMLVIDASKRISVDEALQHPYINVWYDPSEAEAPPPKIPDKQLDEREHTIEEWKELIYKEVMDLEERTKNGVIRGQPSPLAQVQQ
Description: as §1

[16] = molecular target: T16, JNK2 alpha2 (Homo sapiens, UniProt P45984); conditions: 5 μM
T16 construct: purchased Millipore
Description: as §1

[17] = molecular target: T17, KDR (Homo sapiens, UniProt P35968); conditions: read-out: kinase activity compared with the control
T17 construct: purchased Millipore
Description: as §1

[18] = molecular target: T18, LKB1 (Homo sapiens, UniProt Q15831); conditions: read-out: kinase activity compared with the control
T18 construct: purchased Millipore
Description: as §1

[19] = molecular target: T19, MAPK1 (Homo sapiens, UniProt P27361); conditions: read-out: kinase activity compared with the control
T19 construct: purchased Millipore
Description: as §1

[20] = molecular target: T20, MEK1 (Homo sapiens, UniProt Q02750); conditions: read-out: kinase activity compared with the control
T20 construct: purchased Millipore
Description: as §1

[21] = molecular target: T21, MKK4 (Mus musculus, UniProt P47809); conditions: read-out: kinase activity compared with the control
T21 construct: purchased Millipore
Description: as §1

[22] = molecular target: T22, MKK6 (Homo sapiens, UniProt P52564); conditions: read-out: kinase activity compared with the control
T22 construct: purchased Millipore
Description: as §1

[23] = molecular target: T23, MKK7 beta (Homo sapiens, UniProt O14733); conditions: 5 μM
T23 construct: purchased Millipore
Description: as §1

[24] = molecular target: T24, MSK1 (Homo sapiens, UniProt O75582); conditions: read-out: kinase activity compared with the control
T24 construct: purchased Millipore
Description: as §1

[25] = molecular target: T25, MSK2 (Homo sapiens, UniProt O75676); conditions: read-out: kinase activity compared with the control
T25 construct: purchased Millipore
Description: as §1

[26] = molecular target: T26, Met (Homo sapiens, UniProt P08581); conditions: 5 μM
T26 construct: purchased Millipore
T26 sequence (P08581 25-1390): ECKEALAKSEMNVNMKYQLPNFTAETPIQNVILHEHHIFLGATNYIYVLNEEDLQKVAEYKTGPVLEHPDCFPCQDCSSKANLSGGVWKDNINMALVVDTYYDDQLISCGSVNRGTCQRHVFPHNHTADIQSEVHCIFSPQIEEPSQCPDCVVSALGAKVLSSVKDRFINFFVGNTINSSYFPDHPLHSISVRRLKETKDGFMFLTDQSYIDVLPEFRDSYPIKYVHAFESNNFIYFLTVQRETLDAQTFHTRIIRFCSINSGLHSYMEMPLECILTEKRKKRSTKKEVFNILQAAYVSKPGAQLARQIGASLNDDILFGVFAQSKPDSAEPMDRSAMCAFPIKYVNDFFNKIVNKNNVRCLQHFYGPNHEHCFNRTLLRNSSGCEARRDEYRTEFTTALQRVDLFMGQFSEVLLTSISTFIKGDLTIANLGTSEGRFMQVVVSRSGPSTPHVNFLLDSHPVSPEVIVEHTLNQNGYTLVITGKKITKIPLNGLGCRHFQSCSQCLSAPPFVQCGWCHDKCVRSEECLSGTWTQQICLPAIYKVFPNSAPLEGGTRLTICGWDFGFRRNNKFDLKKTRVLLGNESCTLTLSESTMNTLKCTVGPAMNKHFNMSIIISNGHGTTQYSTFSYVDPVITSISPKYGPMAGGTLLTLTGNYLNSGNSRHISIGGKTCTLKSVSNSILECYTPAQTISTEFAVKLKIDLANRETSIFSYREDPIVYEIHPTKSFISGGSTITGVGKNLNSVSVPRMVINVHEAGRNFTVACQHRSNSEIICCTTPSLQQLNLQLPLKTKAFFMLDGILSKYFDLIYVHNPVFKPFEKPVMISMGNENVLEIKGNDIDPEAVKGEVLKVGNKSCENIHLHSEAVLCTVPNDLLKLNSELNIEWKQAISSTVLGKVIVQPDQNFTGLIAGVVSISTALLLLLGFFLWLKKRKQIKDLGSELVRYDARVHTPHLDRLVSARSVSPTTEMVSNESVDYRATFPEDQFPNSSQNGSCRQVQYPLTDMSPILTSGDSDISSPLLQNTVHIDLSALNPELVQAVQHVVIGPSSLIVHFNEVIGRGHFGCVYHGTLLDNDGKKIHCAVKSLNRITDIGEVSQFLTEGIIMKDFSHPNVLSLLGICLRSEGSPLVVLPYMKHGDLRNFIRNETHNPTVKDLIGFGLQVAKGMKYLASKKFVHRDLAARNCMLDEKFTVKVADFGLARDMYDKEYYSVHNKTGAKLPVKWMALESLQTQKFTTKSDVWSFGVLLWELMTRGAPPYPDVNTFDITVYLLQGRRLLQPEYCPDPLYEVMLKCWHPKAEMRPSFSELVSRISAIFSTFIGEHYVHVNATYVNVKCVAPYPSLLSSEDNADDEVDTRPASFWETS
Description: as §1

[27] = molecular target: T27, PDK1 (Homo sapiens, UniProt O15530); conditions: read-out: kinase activity compared with the control
T27 construct: purchased Millipore
Description: as §1

[28] = molecular target: PI3-K alpha (Homo sapiens, UniProt P42336); conditions: read-out: kinase activity compared with the control
Description: as §1

[29] = molecular target: PI3-K beta (Homo sapiens, UniProt P42338); conditions: read-out: kinase activity compared with the control
Description: as §1

[30] = molecular target: PI3-K delta (Homo sapiens, UniProt O00329); conditions: read-out: kinase activity compared with the control
Description: as §1

[31] = molecular target: PI3-K gamma (Homo sapiens, UniProt P48736); conditions: read-out: kinase activity compared with the control
Chain of PI3-K gamma (P48736 whole entry, species assumed): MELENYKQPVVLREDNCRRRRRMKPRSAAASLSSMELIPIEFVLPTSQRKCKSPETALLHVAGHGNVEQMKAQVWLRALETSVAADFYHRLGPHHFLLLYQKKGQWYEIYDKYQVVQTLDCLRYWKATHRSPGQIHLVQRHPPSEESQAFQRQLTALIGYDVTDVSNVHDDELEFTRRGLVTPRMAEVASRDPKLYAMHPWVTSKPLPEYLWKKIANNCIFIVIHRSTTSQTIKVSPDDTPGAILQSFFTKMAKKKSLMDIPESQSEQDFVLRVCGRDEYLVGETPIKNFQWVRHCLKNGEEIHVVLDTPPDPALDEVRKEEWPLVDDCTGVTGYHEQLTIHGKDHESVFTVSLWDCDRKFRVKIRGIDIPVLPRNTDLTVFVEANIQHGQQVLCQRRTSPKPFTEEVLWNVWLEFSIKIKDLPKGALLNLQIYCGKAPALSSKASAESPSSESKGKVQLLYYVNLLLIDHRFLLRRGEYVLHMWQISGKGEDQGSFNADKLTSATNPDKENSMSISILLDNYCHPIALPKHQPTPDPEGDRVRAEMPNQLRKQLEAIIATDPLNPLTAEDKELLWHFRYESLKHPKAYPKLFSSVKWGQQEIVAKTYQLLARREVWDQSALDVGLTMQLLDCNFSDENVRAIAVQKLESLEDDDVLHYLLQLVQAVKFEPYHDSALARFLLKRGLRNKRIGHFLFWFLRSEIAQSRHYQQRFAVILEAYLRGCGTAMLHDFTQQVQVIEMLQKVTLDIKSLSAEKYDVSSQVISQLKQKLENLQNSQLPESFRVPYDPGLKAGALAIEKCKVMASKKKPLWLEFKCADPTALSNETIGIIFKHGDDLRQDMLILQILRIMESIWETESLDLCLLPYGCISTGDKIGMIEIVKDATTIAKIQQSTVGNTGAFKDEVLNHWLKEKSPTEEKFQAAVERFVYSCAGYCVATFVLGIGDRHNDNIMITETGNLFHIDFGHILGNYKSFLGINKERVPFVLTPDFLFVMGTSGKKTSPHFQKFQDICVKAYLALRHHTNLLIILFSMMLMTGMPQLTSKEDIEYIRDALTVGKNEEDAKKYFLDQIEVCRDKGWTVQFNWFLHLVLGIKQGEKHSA
Description: as §1

[32] = molecular target: T28, Pim-1 (Homo sapiens, UniProt P11309); conditions: read-out: kinase activity compared with the control
T28 construct: purchased Millipore
Description: as §1

[33] = molecular target: T29, RSK2 (Homo sapiens, UniProt P51812); conditions: read-out: kinase activity compared with the control
T29 construct: purchased Millipore
Description: as §1

[34] = molecular target: T30, c-Src (Homo sapiens, UniProt P12931); conditions: read-out: kinase activity compared with the control
T30 construct: purchased Millipore
Description: as §1

[35] = molecular target: T31, mTOR (Homo sapiens, UniProt P42345); conditions: read-out: kinase activity compared with the control
T31 construct: purchased Millipore
Description: as §1

[36] = molecular target: T32, mTOR/FKBP12 (Homo sapiens, UniProt P42345); conditions: read-out: kinase activity compared with the control
T32 construct: purchased Millipore
Description: as §1

O=C(/C=C/c1ccc2c(c1)OCO2)/C=C1/C(=O)Nc2ccccc21 [Compound 1]
remaining activity at 5 µM [1]: 96% | remaining activity at 5 µM [2]: 109% | kinase activity of Aurora A decreased (kinase profile) ([3]; 5 μM): less than 25% | remaining activity at 5 µM ([3]; Aurora A, read-out: kinase activity compared with the control): 76% | remaining activity at 5 µM [4]: 86% | remaining activity at 5 µM [5]: 75% | kinase activity compared with the control [6]: 110 | kinase activity compared with the control [7]: 106 | kinase activity compared with the control [8]: 101 | remaining activity at 5 µM [9]: 104% | remaining activity at 5 µM [10]: 92% | remaining activity at 5 µM [11]: 85% | remaining activity at 5 µM [12]: 94% | remaining activity at 5 µM [13]: 105% | remaining activity at 5 µM [14]: 83% | kinase activity compared with the control [15]: 104 | kinase activity compared with the control [16]: 89 | remaining activity at 5 µM [17]: 93% | remaining activity at 5 µM [18]: 87% | remaining activity at 5 µM [19]: 100% | remaining activity at 5 µM [20]: 104% | remaining activity at 5 µM [21]: 130% | remaining activity at 5 µM [22]: 129% | kinase activity compared with the control [23]: 94 | remaining activity at 5 µM [24]: 98% | remaining activity at 5 µM [25]: 79% | kinase activity compared with the control [26]: 89 | remaining activity at 5 µM [27]: 96% | remaining activity at 5 µM [28]: 102% | remaining activity at 5 µM [29]: 103% | remaining activity at 5 µM [30]: 105% | remaining activity at 5 µM [31]: 100% | remaining activity at 5 µM [32]: 96% | remaining activity at 5 µM [33]: 94% | remaining activity at 5 µM [34]: 99% | remaining activity at 5 µM [35]: 136% | remaining activity at 5 µM [36]: 86%
